The target in experiment [1] is T1, ULK1 (Homo sapiens, UniProt O75385).
T1 sequence (O75385 1-1050): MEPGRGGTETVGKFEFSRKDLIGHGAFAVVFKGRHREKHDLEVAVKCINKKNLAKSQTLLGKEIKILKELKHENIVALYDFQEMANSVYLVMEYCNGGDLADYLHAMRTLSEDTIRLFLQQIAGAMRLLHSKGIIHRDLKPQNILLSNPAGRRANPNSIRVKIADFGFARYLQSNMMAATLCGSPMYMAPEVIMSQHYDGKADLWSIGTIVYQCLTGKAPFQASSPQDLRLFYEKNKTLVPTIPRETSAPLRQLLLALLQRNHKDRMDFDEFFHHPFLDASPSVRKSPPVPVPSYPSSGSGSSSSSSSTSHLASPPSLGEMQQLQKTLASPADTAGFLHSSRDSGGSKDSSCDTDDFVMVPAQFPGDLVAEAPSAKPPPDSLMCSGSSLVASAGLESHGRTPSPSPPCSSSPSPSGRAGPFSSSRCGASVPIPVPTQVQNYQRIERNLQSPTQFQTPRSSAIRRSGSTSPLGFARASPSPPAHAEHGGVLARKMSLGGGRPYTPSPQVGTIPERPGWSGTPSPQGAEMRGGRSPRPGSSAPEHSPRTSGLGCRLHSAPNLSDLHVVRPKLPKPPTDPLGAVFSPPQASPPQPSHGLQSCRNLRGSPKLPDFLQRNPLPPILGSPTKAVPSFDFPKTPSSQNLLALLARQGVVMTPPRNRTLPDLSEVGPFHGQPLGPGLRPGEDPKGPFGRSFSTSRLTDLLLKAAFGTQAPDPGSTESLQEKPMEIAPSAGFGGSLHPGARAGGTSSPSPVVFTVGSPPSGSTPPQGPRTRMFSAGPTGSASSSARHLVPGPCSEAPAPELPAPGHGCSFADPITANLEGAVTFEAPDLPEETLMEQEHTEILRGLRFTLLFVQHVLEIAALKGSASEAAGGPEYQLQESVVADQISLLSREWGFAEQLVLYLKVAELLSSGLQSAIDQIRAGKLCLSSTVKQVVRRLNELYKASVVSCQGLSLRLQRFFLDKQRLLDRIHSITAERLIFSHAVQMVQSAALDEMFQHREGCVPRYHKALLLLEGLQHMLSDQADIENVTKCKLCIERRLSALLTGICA
The experiment in a line: ADP-Glo kinase assay. Format: biochemical.

The target in experiment [2] is T2, ULK2 (Homo sapiens, UniProt Q8IYT8).
T2 sequence (Q8IYT8 1-1036): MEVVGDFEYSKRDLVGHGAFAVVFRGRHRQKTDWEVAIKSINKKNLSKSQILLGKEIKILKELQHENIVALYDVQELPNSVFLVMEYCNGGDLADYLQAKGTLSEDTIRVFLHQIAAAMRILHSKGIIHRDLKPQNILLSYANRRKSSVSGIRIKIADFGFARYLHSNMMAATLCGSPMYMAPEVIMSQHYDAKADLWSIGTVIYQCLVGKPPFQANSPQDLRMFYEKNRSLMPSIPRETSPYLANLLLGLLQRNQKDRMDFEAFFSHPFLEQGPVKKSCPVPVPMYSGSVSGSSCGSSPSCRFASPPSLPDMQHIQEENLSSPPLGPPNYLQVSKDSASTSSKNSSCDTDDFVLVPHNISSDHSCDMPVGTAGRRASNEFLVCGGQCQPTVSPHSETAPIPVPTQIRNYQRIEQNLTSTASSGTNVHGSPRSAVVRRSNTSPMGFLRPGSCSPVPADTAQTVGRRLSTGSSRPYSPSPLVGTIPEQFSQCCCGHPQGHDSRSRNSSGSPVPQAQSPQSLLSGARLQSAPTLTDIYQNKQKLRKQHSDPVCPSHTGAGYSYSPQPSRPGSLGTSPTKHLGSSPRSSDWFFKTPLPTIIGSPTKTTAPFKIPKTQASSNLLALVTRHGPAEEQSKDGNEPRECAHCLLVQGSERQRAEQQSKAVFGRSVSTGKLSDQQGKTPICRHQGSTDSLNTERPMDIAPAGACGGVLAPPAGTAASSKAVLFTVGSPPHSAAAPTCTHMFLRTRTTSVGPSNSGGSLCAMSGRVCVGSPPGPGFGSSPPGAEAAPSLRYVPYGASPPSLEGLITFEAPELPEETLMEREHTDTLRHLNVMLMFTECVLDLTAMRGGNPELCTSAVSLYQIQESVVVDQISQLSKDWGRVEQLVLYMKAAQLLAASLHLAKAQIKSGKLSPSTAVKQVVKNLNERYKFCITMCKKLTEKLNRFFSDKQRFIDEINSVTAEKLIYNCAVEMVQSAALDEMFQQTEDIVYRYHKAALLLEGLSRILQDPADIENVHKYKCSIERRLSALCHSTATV
The experiment in a line: biochemical.

Experiment [3] has as its target T3, kinase domain of ULK2 (Homo sapiens, UniProt Q8IYT8).
T3 sequence (Q8IYT8 1-276 limits assumed): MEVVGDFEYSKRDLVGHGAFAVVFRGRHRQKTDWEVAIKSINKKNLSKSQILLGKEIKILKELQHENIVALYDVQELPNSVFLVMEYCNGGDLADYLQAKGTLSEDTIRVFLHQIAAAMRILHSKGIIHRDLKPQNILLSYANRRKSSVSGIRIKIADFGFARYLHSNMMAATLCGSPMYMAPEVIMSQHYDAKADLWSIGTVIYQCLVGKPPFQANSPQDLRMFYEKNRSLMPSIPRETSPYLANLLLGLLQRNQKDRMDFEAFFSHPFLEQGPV
As to conditions: binder.

For experiment [4], the target named is T4, kinase domain of ULK1 (Homo sapiens, UniProt O75385).
T4 sequence (O75385 1-283 limits assumed): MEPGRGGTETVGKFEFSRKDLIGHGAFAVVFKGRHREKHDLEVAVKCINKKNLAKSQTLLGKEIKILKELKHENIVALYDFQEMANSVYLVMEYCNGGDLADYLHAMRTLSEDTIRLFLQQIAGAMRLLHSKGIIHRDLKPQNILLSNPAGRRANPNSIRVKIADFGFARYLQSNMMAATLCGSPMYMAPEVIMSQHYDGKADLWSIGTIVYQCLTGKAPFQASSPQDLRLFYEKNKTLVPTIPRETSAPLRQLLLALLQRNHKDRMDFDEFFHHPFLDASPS
As to conditions: binder.

For experiment [5], the target named is T5, ULK1 (NanoBRET) (Homo sapiens, UniProt O75385).
T5 sequence (O75385 1-1050): T1 sequence (O75385 1-1050)
The experiment is described as follows: NanoBRET cellular target engagement. Format: cell-based.

The target of experiment [6] is T1, ULK1. The experiment in a line: biochemical.

On to `CNC(=O)c1ccccc1Nc1nc(Nc2cc(OC)ccc2C)ncc1Cl` [6k, 2-(5-Chloro-2-(5-methoxy-2-methylphenylamino)pyrimidin-4-ylamino)-N-methylbenzamide], for which the IC50 was found to be 292 nM in experiment [1] and 893 ± 454 nM in experiment [2]. Further, in experiment [3], the “ULK2 PTS (ºC)” value was determined as 3.38 ± 0.14 °C. For the same compound, the “ULK1 PTS (ºC)” value in experiment [4] is 5.75 ± 0.12 °C.
As to `CNC(=O)c1ccccc1Nc1nc(Nc2cc(OC)ccc2C)ncc1C(F)(F)F` [6l, 2-(2-(5-Methoxy-2-methylphenylamino)-5-(trifluoromethyl)pyrimidin-4-ylamino)-N-methylbenzamide], the IC50 in experiment [1] amounted to 38 nM; in experiment [2], 1960 ± 101 nM. Moreover, in experiment [3], the “ULK2 PTS (ºC)” value was found to be 7.08 ± 0.25 °C. Further, the “ULK1 PTS (ºC)” value in experiment [4] was 8.90 ± 0.17 °C.
As for `CNC(=O)c1ccccc1Nc1nc(Nc2ccc(N3CCOCC3)cc2OC)ncc1C(F)(F)F` [6c, 2-(2-(2-Methoxy-4-morpholinophenylamino)-5-(trifluoromethyl)pyrimidin-4-ylamino)-N-methylbenzamide], the IC50 in experiment [1] turned out to be 62 nM; in experiment [2] it was 1340 ± 198 nM. Further, in experiment [3], the “ULK2 PTS (ºC)” value is 6.50 ± 0.09 °C. For the same compound, the “ULK1 PTS (ºC)” value in experiment [4] came out at 6.55 ± 0.12 °C.
For `O=C1CCc2cc(Nc3ncc(C(F)(F)F)c(NC4CC4)n3)ccc2N1` [SBP-7501, reference compound], in experiment [5], 167 ± 31 nM corresponded to half-maximal inhibition (IC50).
Compound SBP-7455 [reference compound] displayed a concentration for half-maximal inhibition (IC50) in experiment [5] of 328 ± 43 nM.
Compound `FC(F)(F)c1cnc(Nc2ccc3c(c2)CCNC3)nc1NC1CC1` [SBP-5147, reference compound] gave an IC50 in experiment [5] of 47 ± 11 nM. Compared with the last compound, the IC50 is about 7-fold lower.
`CNC(=O)c1ccccc1Nc1nc(Nc2cc3c(cc2C)OCO3)ncc1Cl` [6i, 2-(5-Chloro-2-(6-methylbenzo[d][1,3]dioxol-5-ylamino)pyrimidin-4-ylamino)-N-methylbenzamide]: the IC50 in experiment [2] is greater than 3000 nM; in experiment [6], 2700 ± 1780 nM. For the same compound, the “ULK2 PTS (ºC)” value in experiment [3] was 2.45 ± 0.20 °C. For the same compound, in experiment [4], the “ULK1 PTS (ºC)” value came out at 3.37 ± 0.38 °C.
In the case of `CNC(=O)c1ccccc1Nc1nc(Nc2ccc3[nH]ccc3c2)ncc1Br` [6h, 2-(2-(1H-indol-5-ylamino)-5-bromopyrimidin-4-ylamino)-N-methylbenzamide], the concentration for half-maximal inhibition (IC50) in experiment [2] is greater than 3000 nM; in experiment [6] it was 6 ± 1 nM. In addition, the “ULK2 PTS (ºC)” value in experiment [3] was 7.49 ± 0.46 °C. Besides, in experiment [4], the “ULK1 PTS (ºC)” value turned out to be 8.08 ± 0.53 °C.
Take `CNC(=O)c1ccccc1Nc1nc(Nc2cccc(OC)c2)ncc1Cl` [6n, 2-(5-Chloro-2-(3-methoxyphenylamino)pyrimidin-4-ylamino)-N-methylbenzamide]: the results for the IC50 in experiment [2] and in experiment [6] were greater than 3000 nM and 50 ± 25 nM, respectively. Also, in experiment [3], the “ULK2 PTS (ºC)” value worked out at 1.38 ± 0.33 °C. Also, the “ULK1 PTS (ºC)” value in experiment [4] turned out to be 6.53 ± 0.87 °C.
Consider `CNC(=O)c1ccccc1Nc1nc(Nc2cc(OC)ccc2C)ncc1Br` [6m, 2-(5-Bromo-2-(5-methoxy-2-methylphenylamino)pyrimidin-4-ylamino)-N-methylbenzamide], for which the IC50 is 32 nM in experiment [1] and greater than 3000 nM in experiment [2]. In experiment [3], the “ULK2 PTS (ºC)” value amounted to 4.28 ± 0.19 °C. In addition, the “ULK1 PTS (ºC)” value in experiment [4] is 6.78 ± 0.13 °C.
For the compound `CNC(=O)c1ccccc1Nc1nc(Nc2cc(N3CCOCC3)cc(N3CCOCC3)c2)ncc1Br` [6t, 2-(5-Bromo-2-(3,5-dimorpholinophenylamino)pyrimidin-4-ylamino)-N-methylbenzamide], the half-maximal inhibitory concentration (IC50) amounted to 59 ± 6 nM in experiment [2] and 8 ± 1 nM in experiment [6]. Also, in experiment [3], the “ULK2 PTS (ºC)” value is 16.23 ± 0.15 °C. Also, the “ULK1 PTS (ºC)” value in experiment [4] was determined as 16.83 ± 0.12 °C.
With `CNC(=O)c1ccccc1Nc1nc(Nc2ccc3[nH]ccc3c2)ncc1Cl` [6g, 2-(2-(1H-indol-5-ylamino)-5-chloropyrimidin-4-ylamino)-N-methylbenzamide], the IC50 is greater than 3000 nM in experiment [2] and 94 ± 43 nM in experiment [6]. Also, the “ULK2 PTS (ºC)” value in experiment [3] stood at 5.86 ± 0.12 °C. In addition, the “ULK1 PTS (ºC)” value in experiment [4] is 6.78 ± 0.19 °C.
Turning to `CNC(=O)c1ccccc1Nc1nc(Nc2cc(N3CCOCC3)cc(N3CCOCC3)c2)ncc1Cl` [6s, 2-(5-Chloro-2-(3,5-dimorpholinophenylamino)pyrimidin-4-ylamino)-N-methylbenzamide], the half-inhibitory concentration (IC50) in experiment [2] was found to be 180 ± 9 nM; in experiment [6] it was 38 ± 4 nM. Also, the “ULK2 PTS (ºC)” value in experiment [3] stood at 11.50 ± 0.27 °C. For the same compound, the “ULK1 PTS (ºC)” value in experiment [4] amounted to 13.28 ± 0.40 °C.
On to `CNC(=O)c1ccccc1Nc1nc(Nc2ccc3c(c2)OCCO3)ncc1Cl` [6j, 2-(5-Chloro-2-(2,3-dihydrobenzo[b][1,4]dioxin-6-ylamino)pyrimidin-4-ylamino)-N-methylbenzamide], for which the IC50 in experiment [1] was 218 nM; in experiment [2] it was greater than 3000 nM. In experiment [3], the “ULK2 PTS (ºC)” value stood at 4.43 ± 0.33 °C. In experiment [4], the “ULK1 PTS (ºC)” value stood at 6.05 ± 0.13 °C.
As to `CNC(=O)c1ccccc1Nc1nc(Nc2ccc3c(c2)CC(=O)N3)ncc1Cl` [6f, 2-(5-Chloro-2-(2-oxoindolin-5-ylamino)pyrimidin-4-ylamino)-N-methylbenzamide], the IC50 in experiment [1] was 21 nM; in experiment [2], greater than 3000 nM. The “ULK2 PTS (ºC)” value in experiment [3] is 0.48 ± 0.06 °C. In addition, the “ULK1 PTS (ºC)” value in experiment [4] stood at 0.20 ± 0.13 °C.
In the case of `CNC(=O)c1ccccc1Nc1nc(Nc2ccc(N3CCOCC3)cc2OC)ncc1Br` [6b, 2-(5-Bromo-2-(2-methoxy-4-morpholinophenylamino)pyrimidin-4-ylamino)-N-methylbenzamide], the concentration for half-maximal inhibition (IC50) is 141 nM in experiment [1] and greater than 3000 nM in experiment [2]. Also, the “ULK2 PTS (ºC)” value in experiment [3] was found to be 4.13 ± 0.02 °C. For the same compound, in experiment [4], the “ULK1 PTS (ºC)” value amounted to 5.60 ± 0.23 °C.

By IC50 is commonly meant the concentration needed to halve the response being measured.

The values are drawn from doi:10.1101/2025.10.14.682402v1 (biorxiv, 2025).
